Bridge positions count the residues as written; N and C are the ends. Square brackets hold non-standard residues; d marks the D form. Peptide text beside a SMILES is read from it. * marks the point of attachment. ξ: configuration not given here. Bip = N[C@@H](Cc1ccc(-c2ccccc2)cc1)C(=O)O; Phe(3-Me) = Cc1cccc(C[C@H](N)C(=O)O)c1; Cha = N[C@@H](CC1CCCCC1)C(=O)O; Cit = NC(=O)NCCC[C@H](N)C(=O)O; aThr = C[C@H](O)[C@H](N)C(=O)O; Thr(3ξ) = CC(O)[C@H](N)C(=O)O; Carboxymethyl = O=C(O)C*; Orn = NCCC[C@H](N)C(=O)O; Aun = NCCCCCCCCCCC(=O)O; Dab = NCC[C@H](N)C(=O)O

The target in the assay is T1, PD-1/PD-L1 interaction (PE-labeled human PD-L1-Ig binding to Jurkat cell line over-expressing human PD-1) (Homo sapiens, UniProt Q15116).
T1 construct: expressed in transfected cells; host or cells: Jurkat
T1 sequence (Q15116 25-288): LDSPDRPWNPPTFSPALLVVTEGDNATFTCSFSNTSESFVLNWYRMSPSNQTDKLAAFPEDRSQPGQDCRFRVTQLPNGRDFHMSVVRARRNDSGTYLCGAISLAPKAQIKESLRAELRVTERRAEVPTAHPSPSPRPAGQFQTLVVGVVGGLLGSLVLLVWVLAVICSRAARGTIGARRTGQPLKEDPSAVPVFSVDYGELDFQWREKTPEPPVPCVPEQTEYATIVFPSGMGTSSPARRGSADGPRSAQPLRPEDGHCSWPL
The assay can be described thus: Jurkat-PD-1 Cell Binding High-Content Screening Assay (CBA). As to conditions: Jurkat cell line over-expressing human PD-1; PE-labeled PD-L1-Ig 20 nM final; read-out: Jurkat hPD1-PDL1 IC50. Format: cell-based. Put shortly: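 First, compound is added to PD-1-expressing Jurkat cells in serum-containing DMEM and left 2 h at 37° C. Next, PE-conjugated PD-L1-Ig is introduced at 20 nM final concentration for 1 hour. Finally, cells are fixed in 4% paraformaldehyde with Hoechst 33342, washed and imaged.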
Take `Cc1cccc(C[C@@H]2NC(=O)[C@H](CC(=O)O)NC(=O)[C@H](Cc3ccc(OCC(=O)O)cc3)NC(=O)[C@H](CC(N)=O)NC(=O)CSC[C@@H](C(=O)N[C@@H](CCN)C(=O)NCCCCCCCCCCC(=O)O)NC(=O)[C@H](C(C)O)NC(=O)[C@H](C(C)C)NC(=O)[C@H](CC3CCCCC3)NC(=O)[C@H](CCN)NC(=O)[C@@H](CC(C)C)NC(=O)[C@H](CCN)NC(=O)[C@H](Cc3ccc(O)cc3)NC(=O)[C@H](Cc3ccc(-c4ccccc4)cc3)NC(=O)[C@H](CC(C)C)NC2=O)c1` (stereo partly drawn) [Compound 3374] ({CH2CO}-NY(Carboxymethyl)D[Phe(3-Me)]L[Bip]Y[Dab][dL][Dab][Cha]V[Thr(3ξ)]C[Dab][Aun]-OH; thioether N-14): the IC50 (in general, the concentration that gives 50% inhibition) worked out at 31.6 nM.
As to `Cc1cccc(C[C@@H]2NC(=O)[C@H](CC(=O)O)NC(=O)[C@H](Cc3ccc(OCC(=O)O)cc3)NC(=O)[C@H](CC(N)=O)NC(=O)CSC[C@@H](C(=O)NCCCCCCCCCCC(=O)O)NC(=O)[C@H](CCC(=O)O)NC(=O)[C@H](C(C)C)NC(=O)[C@H](CC3CCCCC3)NC(=O)[C@H](CCN)NC(=O)[C@@H](CC(C)C)NC(=O)[C@H](CCCN)NC(=O)[C@H](Cc3ccc(O)cc3)NC(=O)[C@H](Cc3ccc(-c4ccccc4)cc3)NC(=O)[C@H](C(C)C)NC2=O)c1` [Compound 3375] ({CH2CO}-NY(Carboxymethyl)D[Phe(3-Me)]V[Bip]Y[Orn][dL][Dab][Cha]VEC[Aun]-OH; thioether N-14), the IC50 is 12.3 nM.
Turning to `Cc1cccc(C[C@@H]2NC(=O)[C@H](CC(=O)O)NC(=O)[C@H](Cc3ccc(OCC(=O)O)cc3)NC(=O)[C@H](CC(N)=O)NC(=O)CSC[C@@H](C(=O)N[C@@H](CCC(=O)O)C(=O)NCCCCCCCCCCC(=O)O)NC(=O)[C@H]([C@H](C)O)NC(=O)[C@H](C(C)C)NC(=O)[C@H](CC3CCCCC3)NC(=O)[C@H](CCN)NC(=O)[C@@H](CC(C)C)NC(=O)[C@H](CCCN)NC(=O)[C@H](Cc3ccc(O)cc3)NC(=O)[C@H](Cc3ccc(-c4ccccc4)cc3)NC(=O)[C@H](C(C)C)NC2=O)c1` [Compound 3376] ({CH2CO}-NY(Carboxymethyl)D[Phe(3-Me)]V[Bip]Y[Orn][dL][Dab][Cha]V[aThr]CE[Aun]-OH; thioether N-14), the IC50 was 14.8 nM.
With `Cc1cccc(C[C@@H]2NC(=O)[C@H](CC(=O)O)NC(=O)[C@H](Cc3ccc(OCC(=O)O)cc3)NC(=O)[C@H](CC(N)=O)NC(=O)CSC[C@@H](C(=O)N[C@@H](CCN)C(=O)NCCCCCCCCCCC(=O)O)NC(=O)[C@H]([C@H](C)O)NC(=O)[C@H](C(C)C)NC(=O)[C@H](CC3CCCCC3)NC(=O)[C@H](CCN)NC(=O)[C@@H](CC(C)C)NC(=O)[C@H](CCCN)NC(=O)[C@H](Cc3ccc(O)cc3)NC(=O)[C@H](Cc3ccc(-c4ccccc4)cc3)NC(=O)[C@H](C(C)C)NC2=O)c1` [Compound 3377] ({CH2CO}-NY(Carboxymethyl)D[Phe(3-Me)]V[Bip]Y[Orn][dL][Dab][Cha]V[aThr]C[Dab][Aun]-OH; thioether N-14), the concentration for half-maximal inhibition (IC50) is 13.5 nM.
Consider `Cc1cccc(C[C@@H]2NC(=O)[C@H](CC(=O)O)NC(=O)[C@H](Cc3ccc(OCC(=O)O)cc3)NC(=O)[C@H](CC(N)=O)NC(=O)CSC[C@@H](C(=O)N[C@@H](CCN)C(=O)NCCCCCCCCCCC(=O)O)NC(=O)[C@H](CCCNC(N)=O)NC(=O)[C@H](C(C)C)NC(=O)[C@H](CC3CCCCC3)NC(=O)[C@H](CCN)NC(=O)[C@@H](CC(C)C)NC(=O)[C@H](CCCN)NC(=O)[C@H](Cc3ccc(O)cc3)NC(=O)[C@H](Cc3ccc(-c4ccccc4)cc3)NC(=O)[C@H](C(C)C)NC2=O)c1` [Compound 3378] ({CH2CO}-NY(Carboxymethyl)D[Phe(3-Me)]V[Bip]Y[Orn][dL][Dab][Cha]V[Cit]C[Dab][Aun]-OH; thioether N-14), for which the IC50 is 18.1 nM.
For `Cc1cccc(C[C@@H]2NC(=O)[C@H](CC(=O)O)NC(=O)[C@H](Cc3ccc(OCC(=O)O)cc3)NC(=O)[C@H](CC(N)=O)NC(=O)CSC[C@@H](C(=O)N[C@@H](CCN)C(=O)NCCCCCCCCCCC(=O)O)NC(=O)[C@H](CCC(=O)O)NC(=O)[C@H](C(C)C)NC(=O)[C@H](CC3CCCCC3)NC(=O)[C@H](CCN)NC(=O)[C@@H](CC(C)C)NC(=O)[C@H](CCCN)NC(=O)[C@H](Cc3ccc(O)cc3)NC(=O)[C@H](Cc3ccc(-c4ccccc4)cc3)NC(=O)[C@H](C(C)C)NC2=O)c1` [Compound 3379] ({CH2CO}-NY(Carboxymethyl)D[Phe(3-Me)]V[Bip]Y[Orn][dL][Dab][Cha]VEC[Dab][Aun]-OH; thioether N-14), the IC50 came to 9.5 nM.
Under `Cc1cccc(C[C@@H]2NC(=O)[C@H](CC(=O)O)NC(=O)[C@H](Cc3ccc(OCC(=O)O)cc3)NC(=O)[C@H](CCCNC(=N)N)NC(=O)CSC[C@@H](C(=O)N[C@@H](CCN)C(=O)NCCCCCCCCCCC(=O)O)NC(=O)[C@H](CCC(N)=O)NC(=O)[C@H](C(C)C)NC(=O)[C@H](CC3CCCCC3)NC(=O)[C@H](CCN)NC(=O)[C@@H](CC(C)C)NC(=O)[C@H](CCCN)NC(=O)[C@H](Cc3ccc(O)cc3)NC(=O)[C@H](Cc3ccc(-c4ccccc4)cc3)NC(=O)[C@H](CC(C)C)NC2=O)c1` [Compound 3380] ({CH2CO}-RY(Carboxymethyl)D[Phe(3-Me)]L[Bip]Y[Orn][dL][Dab][Cha]VQC[Dab][Aun]-OH; thioether N-14) stands 20.6 nM.
Consider `Cc1cccc(C[C@@H]2NC(=O)[C@H](CC(=O)O)NC(=O)[C@H](Cc3ccc(OCC(=O)O)cc3)NC(=O)[C@H](CCCNC(=N)N)NC(=O)CSC[C@@H](C(=O)N[C@@H](CCN)C(=O)NCCCCCCCCCCC(=O)O)NC(=O)[C@H](CCC(=O)O)NC(=O)[C@H](C(C)C)NC(=O)[C@H](CC3CCCCC3)NC(=O)[C@H](CCN)NC(=O)[C@@H](CC(C)C)NC(=O)[C@H](CCCN)NC(=O)[C@H](Cc3ccc(O)cc3)NC(=O)[C@H](Cc3ccc(-c4ccccc4)cc3)NC(=O)[C@H](Cc3ccc(O)cc3)NC2=O)c1` [Compound 3381] ({CH2CO}-RY(Carboxymethyl)D[Phe(3-Me)]Y[Bip]Y[Orn][dL][Dab][Cha]VEC[Dab][Aun]-OH; thioether N-14), for which the IC50 stood at 8.9 nM.
As to `Cc1cccc(C[C@@H]2NC(=O)[C@H](CC(=O)O)NC(=O)[C@H](Cc3ccc(OCC(=O)O)cc3)NC(=O)[C@H](CCCNC(=N)N)NC(=O)CSC[C@@H](C(=O)N[C@@H](CCN)C(=O)NCCCCCCCCCCC(=O)O)NC(=O)[C@H](CCC(N)=O)NC(=O)[C@H](C(C)C)NC(=O)[C@H](CC3CCCCC3)NC(=O)[C@H](CCN)NC(=O)[C@@H](CC(C)C)NC(=O)[C@H](CCCN)NC(=O)[C@H](Cc3ccc(O)cc3)NC(=O)[C@H](Cc3ccc(-c4ccccc4)cc3)NC(=O)[C@H](Cc3ccc(O)cc3)NC2=O)c1` [Compound 3382] ({CH2CO}-RY(Carboxymethyl)D[Phe(3-Me)]Y[Bip]Y[Orn][dL][Dab][Cha]VQC[Dab][Aun]-OH; thioether N-14), the IC50 came out at 10.8 nM.
Take `Cc1cccc(C[C@@H]2NC(=O)[C@H](CC(=O)O)NC(=O)[C@H](Cc3ccc(OCC(=O)O)cc3)NC(=O)[C@H](CCCNC(=N)N)NC(=O)CSC[C@@H](C(=O)N[C@@H](CCN)C(=O)NCCCCCCCCCCC(=O)O)NC(=O)[C@H](CCCNC(N)=O)NC(=O)[C@H](C(C)C)NC(=O)[C@H](CC3CCCCC3)NC(=O)[C@H](CCN)NC(=O)[C@@H](CC(C)C)NC(=O)[C@H](CCCN)NC(=O)[C@H](Cc3ccc(OCC(=O)O)cc3)NC(=O)[C@H](Cc3ccc(-c4ccccc4)cc3)NC(=O)[C@H](C(C)C)NC2=O)c1` [Compound 3383] ({CH2CO}-RY(Carboxymethyl)D[Phe(3-Me)]V[Bip]Y(Carboxymethyl)[Orn][dL][Dab][Cha]V[Cit]C[Dab][Aun]-OH; thioether N-14): the half-maximal inhibitory concentration (IC50) stood at 8.2 nM.
For the compound `Cc1cccc(C[C@@H]2NC(=O)[C@H](CC(=O)O)NC(=O)[C@H](Cc3ccc(OCC(=O)O)cc3)NC(=O)[C@H](CCCNC(=N)N)NC(=O)CSC[C@@H](C(=O)N[C@@H](CCN)C(=O)NCCCCCCCCCCC(=O)O)NC(=O)[C@H](CCC(=O)O)NC(=O)[C@H](C(C)C)NC(=O)[C@H](CC3CCCCC3)NC(=O)[C@H](CCN)NC(=O)[C@@H](CC(C)C)NC(=O)[C@H](CCCN)NC(=O)[C@H](CCC(N)=O)NC(=O)[C@H](Cc3ccc(-c4ccccc4)cc3)NC(=O)[C@H](C(C)C)NC2=O)c1` [Compound 3384] ({CH2CO}-RY(Carboxymethyl)D[Phe(3-Me)]V[Bip]Q[Orn][dL][Dab][Cha]VEC[Dab][Aun]-OH; thioether N-14), the IC50 is 9.2 nM.
Under `CSCC[C@@H]1NC(=O)[C@H](Cc2ccc(-c3ccccc3)cc2)NC(=O)[C@H](C(C)C)NC(=O)[C@H](Cc2cccc(C)c2)NC(=O)[C@H](CC(=O)O)NC(=O)[C@H](Cc2ccc(OCC(=O)O)cc2)NC(=O)[C@H](CCCNC(=N)N)NC(=O)CSC[C@@H](C(=O)N[C@@H](CCN)C(=O)NCCCCCCCCCCC(=O)O)NC(=O)[C@H](CCC(N)=O)NC(=O)[C@H](C(C)C)NC(=O)[C@H](CC2CCCCC2)NC(=O)[C@H](CCN)NC(=O)[C@@H](CC(C)C)NC(=O)[C@H](CCCN)NC1=O` [Compound 3385] ({CH2CO}-RY(Carboxymethyl)D[Phe(3-Me)]V[Bip]M[Orn][dL][Dab][Cha]VQC[Dab][Aun]-OH; thioether N-14) stands 16.5 nM; under `CC(=O)NCCCC[C@@H]1NC(=O)[C@H](Cc2ccc(-c3ccccc3)cc2)NC(=O)[C@H](Cc2ccc(O)cc2)NC(=O)[C@H](Cc2cccc(C)c2)NC(=O)[C@H](CC(=O)O)NC(=O)[C@H](Cc2ccc(OCC(=O)O)cc2)NC(=O)[C@H](CCCNC(=N)N)NC(=O)CSC[C@@H](C(=O)N[C@@H](CCN)C(=O)NCCCCCCCCCCC(=O)O)NC(=O)[C@H](CCCNC(N)=O)NC(=O)[C@H](C(C)C)NC(=O)[C@H](CC2CCCCC2)NC(=O)[C@H](CCN)NC(=O)[C@@H](CC(C)C)NC(=O)[C@H](CCCN)NC1=O` [Compound 3386] ({CH2CO}-RY(Carboxymethyl)D[Phe(3-Me)]Y[Bip]K(Ac)[Orn][dL][Dab][Cha]V[Cit]C[Dab][Aun]-OH; thioether N-14), 4.4 nM.

These data come from US20260022142A1, “MACROCYCLIC IMMUNOMODULATORS” (Bristol-Myers Squibb Company, priority 2022, published 2026).
